Test results as given in patent US20080206819A1, “Intensified Perfusion Production Method” (priority 2006, published 2008).

Key:
[1] = test system: CHO (Chinese Hamster Ovary) cell-derived cell line; assay: Average daily specific productivity: perfusion, fed-batch and RaMP; format: cell-based; conditions: for Average Daily Specific Productivity: 10 day production run
Excerpt: Average daily specific productivity was compared using traditional perfusion, fed-batch with sodium butyrate induction and RaMP processes. The same production cell line was used for all three methods. Culture conditions for all three methods were similar to those described in Example 1 above. Cells were inoculated at 5×10^5 cells/ml and were allowed to grow to the desired concentration before induction with sodium butyrate. Fed-batch culture was induced with sodium butyrate as a bolus addition. Fed-batch specific productivity calculations were normalized and averaged for new protein production per day. Average daily specific productivity was calculated using production yields from a 10 day production run. Maximal sodium butyrate concentration was 2 mM for both fed-batch and RaMP processes. Average daily yields using the RaMP method was approximately 6 times more than fed-batch or traditional perfusion methods.

[2] = test system: Chinese hamster ovary (CHO) cell line; assay: Effect of mode of sodium butyrate addition (bolus vs. gradual ramping) on cell viability; format: cell-based
Procedure: In order to investigate if the method used to deliver sodium butyrate into the cell culture bioreactor would effect cell viability, two modes of delivery were tested: bolus introduction of the desired sodium butyrate concentration and the gradual “ramping” to the desired sodium butyrate concentration. The growth period conditions were identical to those described above.
On Day 9, sodium butyrate was introduced into the bioreactors. In the bolus condition, 2 mM sodium butyrate (final concentration) was added to the medium and perfused into the bioreactor. […] The maximal concentration of sodium butyrate was maintained for the rest of the production run. Cell viability was determined by pulling samples from each bioreactor and trypan blue staining for live/dead cells. After the bolus addition of 2 mM sodium butyrate, the cell viability started to decline (after day 9). The bioreactor for the bolus condition was stopped on day 19 after the viability dropped below 50%. In contrast, the gradual ramping of sodium butyrate from day 9 to day 14 maintained high cell viability (over 85%).

recombinant CHO cells [3] = conditions: sodium butyrate added in fluidized bed bioreactor; cited from earlier work
recombinant CHO cells [4] = conditions: perfusion culture; end of the production run, in most cases; cited from earlier work
[5] = test system: CHO (Chinese Hamster Ovary) cell-derived cell line; assay: Cell viability during production period, Example 4 (RaMP); format: cell-based; conditions: RaMP: 0.5 mM sodium butyrate day 10, 1.0 mM day 14; entire production period
Procedure: Cells were seeded at 5×10^5 cells/ml and were allowed to grow for 9 days in the bioreactor before induction with butyrate for the RaMP method. Conditions for this growth period are similar to those described in Example 1 above. On day 10, media containing 0.5 mM sodium butyrate was perfused into the bioreactor. On day 14, media containing 1.0 mM sodium butyrate was perfused into the bioreactor.
Cell viability was monitored daily throughout the production period. Over the entire production period, cell viability remained high and never dropped below 85% for both traditional perfusion and RaMP methods.

For `CCCC(=O)[O-].[Na+]` [sodium butyrate], which “Average Daily Specific Productivity” value ([1]; Fed-batch, sodium butyrate bolus addition, maximal 2 mM) is on record?
The value was 0.10 g/L/day ± 0.03.

What about the “Average Daily Specific Productivity” value ([1]; RaMP, maximal sodium butyrate 2 mM) of the same compound?
Its value is 0.64 g/L/day ± 0.07.

What about the “Average daily yields using RaMP relative to fed-batch or traditional perfusion methods” value ([1]; maximal sodium butyrate 2 mM) of the same compound?
The value was “approximately 6 times”.

And the “% viable cells (bolus)” value ([2]; bolus 2 mM from Day 9, day 10 in culture)?
Its value is 76%.

And the “% viable cells (bolus)” value ([2]; bolus 2 mM from Day 9, day 11 in culture)?
The value was 73%.

What about the “% viable cells (bolus)” value ([2]; bolus 2 mM from Day 9, day 12 in culture) of the same compound?
The value was 76%.

And the “% viable cells (bolus)” value ([2]; bolus 2 mM from Day 9, day 13 in culture)?
Its value is 72%.

And the “% viable cells (bolus)” value ([2]; bolus 2 mM from Day 9, day 14 in culture)?
The value was 72%.

What about the “% viable cells (bolus)” value ([2]; bolus 2 mM from Day 9, day 15 in culture) of the same compound?
The value was 84%.

And the “% viable cells (bolus)” value ([2]; bolus 2 mM from Day 9, day 16 in culture)?
Its value is 79%.

And the “% viable cells (bolus)” value ([2]; bolus 2 mM from Day 9, day 17 in culture)?
The value was 76%.

And the “% viable cells (bolus)” value ([2]; bolus 2 mM from Day 9, day 18 in culture)?
The value was 80%.

What about the “% viable cells (bolus)” value ([2]; bolus 2 mM from Day 9, day 19 in culture) of the same compound?
The value was 44%.

And the “% viable cells (bolus)” value ([2]; bolus 2 mM sodium butyrate introduced Day 9, day 9 in culture)?
The value was 89%.

What about the cell viability ([2]; bolus 2 mM sodium butyrate, day 19, bioreactor stopped) of the same compound?
The cell viability was “below 50%”.

And the “% viable cells (RaMP)” value ([2]; gradual ramping from 0.5 mM Day 9 to maximal by Day 14, day 10 in culture)?
The value was 97%.

What about the “% viable cells (RaMP)” value ([2]; gradual ramping from 0.5 mM Day 9 to maximal by Day 14, day 11 in culture) of the same compound?
Its value is 97.6%.

And the “% viable cells (RaMP)” value ([2]; gradual ramping from 0.5 mM Day 9 to maximal by Day 14, day 12 in culture)?
Its value is 96.4%.

What about the “% viable cells (RaMP)” value ([2]; gradual ramping from 0.5 mM Day 9 to maximal by Day 14, day 13 in culture) of the same compound?
The value was 97.1%.

What about the “% viable cells (RaMP)” value ([2]; gradual ramping from 0.5 mM Day 9 to maximal by Day 14, day 14 in culture) of the same compound?
The value was 95.7%.

And the cell viability ([2]; gradual ramping of sodium butyrate from day 9 to day 14)?
The cell viability was “over 85%”.

What about the “% viable cells (RaMP)” value ([2]; maximal concentration maintained after ramping, day 15 in culture) of the same compound?
Its value is 96.7%.

And the “% viable cells (RaMP)” value ([2]; maximal concentration maintained after ramping, day 16 in culture)?
The value was 97.2%.

What about the “% viable cells (RaMP)” value ([2]; maximal concentration maintained after ramping, day 17 in culture) of the same compound?
Its value is 96.4%.

And the “% viable cells (RaMP)” value ([2]; maximal concentration maintained after ramping, day 18 in culture)?
The value was 97%.

And the “% viable cells (RaMP)” value ([2]; maximal concentration maintained after ramping, day 19 in culture)?
The value was 96.9%.

What about the “% viable cells (RaMP)” value ([2]; maximal concentration maintained after ramping, day 20 in culture) of the same compound?
The value was 95.8%.

What about the “% viable cells (RaMP)” value ([2]; maximal concentration maintained after ramping, day 21 in culture) of the same compound?
Its value is 95.4%.

And the “% viable cells (RaMP)” value ([2]; maximal concentration maintained after ramping, day 22 in culture)?
The value was 98.7%.

And the “% viable cells (RaMP)” value ([2]; maximal concentration maintained after ramping, day 23 in culture)?
Its value is 90.6%.

And the “% viable cells (RaMP)” value ([2]; maximal concentration maintained after ramping, day 24 in culture)?
The value was 89.7%.

What about the “% viable cells (RaMP)” value ([2]; maximal concentration maintained after ramping, day 25 in culture) of the same compound?
Its value is 88.8%.

What about the “% viable cells (RaMP)” value ([2]; sodium butyrate from 0.5 mM on Day 9, gradually increased to maximal concentration by Day 14, day 9 in culture) of the same compound?
Its value is 97.4%.

And the “cell growth and cell concentration” value (recombinant CHO cells [3])?
Its value is “the cells stopped growing and cell concentration declined”.

What about the cell viability (recombinant CHO cells [4]) of the same compound?
Its cell viability is “less than 45%”.

What about the cell viability [5] of the same compound?
The cell viability was no less than 85%.
